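96-well plates; 48 h exposure; 5 concentrations. Endpoints by linear interpolation between flanking doses. Not reached: highest tested concentration assigned. TGI is the concentration that stops growth completely.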

Common to all, as to assay: DTP human tumour cell line panel, 48 h
Test [1] concerns A549 NSCLC.
For test [2], the system named is HCC-2998 colon.
Test [3] concerns HCT-116 colon.
The test system of test [4] is HOP-92 NSCLC.
Test [5] concerns KM12 colon.
The subject of test [6] is M14 melanoma.
The test system of test [7] is MDA-MB-231 breast.
The test system of test [8] is MOLT-4 leukemia.
Test [9] has as its system NCI-H226 lung.
The subject of test [10] is NCI-H460 lung.
The test system of test [11] is PC-3 prostate.
Test [12] has as its system SF-268 CNS.
The subject of test [13] is SK-MEL-5 melanoma.
In test [14] the test system is SNB-75 CNS.
For test [15], the system named is SW-620 colon.
For test [16], the system named is TK-10 renal.
The test system of test [17] is UACC-62 melanoma.

`COc1ccc(N2C(=O)CC(c3c[nH]c4ncccc34)C2=O)cc1` (configuration not stated): the TGI (commonly the concentration giving total growth inhibition) in test [1] was above 100 µM; in [2], above 100 µM; in test [3] it was 45.8 µM; in test [4], 36 µM; in test [5], above 100 µM; in test [6], 44.9 µM. For the same compound, the concentration for total growth inhibition (TGI) in test [7] was 40.3 µM; in test [8], above 41 µM; in test [9] it was above 100 µM; in test [10], above 100 µM; in [11] it was above 31.6 µM; in test [12] it was above 100 µM. Further, the TGI in [13] is above 100 µM; in [14], above 100 µM; in [15] it was 40.7 µM; in test [16], 19.5 µM; in [17] it was above 96.4 µM.

`CC(C)C(NCc1c(O)ccc2c(-c3ccccc3)cc(=O)oc12)C(=O)O` (configuration not stated): the TGI in [1], in test [2], in test [3], in test [4], in test [5] and in test [6] was above 100 µM in each case. Further, the TGI in test [7], in [8], in [9], in test [10], in test [11] and in test [12] was above 100 µM in each case. Further, the concentration for total growth inhibition (TGI) in test [13], in [14], in [15], in test [16] and in [17] was above 100 µM in each case.

`O=c1[nH]n(Cc2ccccc2Cl)c2ccccc12`: the TGI in [1], in [2], in [3], in [4], in [5] and in test [6] was above 100 µM in each case. For the same compound, the total growth inhibition concentration (TGI) in test [7], in test [8], in test [9], in test [10], in test [11] and in test [12] was above 100 µM throughout. The TGI in test [13], in test [14], in test [15], in test [16] and in test [17] was above 100 µM each time.

On to `CCOC(=O)c1c(N2CCCC2)[nH]c(=O)c(C(c2cccs2)c2c(O)c(C(=O)OCC)c(N3CCCC3)[nH]c2=O)c1O`, for which the TGI in test [1], in test [2], in test [3], in test [4], in test [5] and in [6] was above 100 µM throughout. Also, the total growth inhibition concentration (TGI) in [7], in test [8], in test [9], in test [10], in test [11] and in test [12] was above 100 µM in each case. Also, the TGI in [13], in [14], in [15], in test [16] and in [17] was above 100 µM in each case.

Consider `C/C(=N\Nc1nc2ccccc2s1)c1cc(C)ncn1`, for which the total growth inhibition concentration (TGI) was above 45.2 µM in [1]; 14.6 µM in test [2]; above 27.2 µM in [3]; above 30.6 µM in test [4]; 14.2 µM in [5]; 25.7 µM in [6]. The concentration for total growth inhibition (TGI) in [7] stood at 9.47 µM; in test [8], 4.15 µM; in test [9], 4.46 µM; in test [10] it was 9.16 µM; in test [11], 34.5 µM; in [12], 3.16 µM. Besides, the TGI in test [13] was 13 µM; in test [14] it was 15.1 µM; in [15], above 53.2 µM; in test [16] it was above 100 µM; in [17], above 32.8 µM.

`COc1cc(C(=O)Oc2c(C#N)sc3c2c(=O)n(-c2ccccc2)c(=S)n3-c2ccccc2)cc(OC)c1OC`: the total growth inhibition concentration (TGI) in test [1] worked out at 95.3 µM; in test [2] it was 45.2 µM; in test [3] it was 35.5 µM; in test [4] it was 64.4 µM; in test [5], 39.7 µM; in test [6], 25.6 µM. In addition, the TGI was 77.9 µM in test [7]; 40.6 µM in test [8]; 32.7 µM in test [9]; 68.1 µM in test [10]; above 100 µM in test [11]; 84.2 µM in test [12]. The TGI in [13] was 31.6 µM; in test [14], 50.3 µM; in test [15], 68 µM; in test [16] it was 95.9 µM; in test [17], 54.7 µM.

`CCOC(=O)/C(C#N)=C/c1ccc2c(c1)CC1(C2)Cc2cc(CC)c(C(C)O)cc2C1` (configuration not stated): the TGI in test [1] was above 100 µM; in [2], above 80.9 µM; in test [3], 15 µM; in test [4], 47.9 µM; in test [5], 38.8 µM; in test [6], 16.8 µM. Further, the TGI in test [7] is 27.1 µM; in [8] it was above 58.6 µM; in test [9], above 64.6 µM; in test [10] it was 77.1 µM; in test [11] it was 56.8 µM; in [12], 32.1 µM. Also, the total growth inhibition concentration (TGI) in [13] worked out at 16.8 µM; in [14], 46.3 µM; in [15] it was 22.5 µM; in test [16], 84.2 µM; in test [17], 29.5 µM.

With `CC1(C)O[C@@H](CBr)C[C@H](C[C@H]2C[C@@H](O)C[C@@H](CCOCc3ccccc3)O2)O1`, the total growth inhibition concentration (TGI) in test [1] turned out to be 75.7 µM; in test [2] it was 53.7 µM; in [3] it was 45.4 µM; in test [4], 77.5 µM; in test [5], 40.7 µM; in test [6], 50.2 µM. The TGI is above 100 µM in test [7]; above 100 µM in test [8]; 35.5 µM in [9]; 87.1 µM in test [10]; 39 µM in test [11]; 39.2 µM in test [12]. Also, the TGI in test [13] was above 100 µM; in test [14], 36.9 µM; in test [15] it was above 100 µM; in test [16] it was 38.3 µM; in test [17] it was 34.4 µM.

For `CCOP(=O)(OCC)/C(C#N)=C/c1ccnc2ccccc12`, the TGI was above 100 µM in [1]; above 100 µM in test [2]; above 100 µM in [3]; 43.7 µM in [4]; 91.3 µM in test [5]; 47.6 µM in test [6]. In addition, the concentration for total growth inhibition (TGI) in test [7] was 58.2 µM; in [8] it was above 100 µM; in test [9], 55.9 µM; in test [10], above 100 µM; in test [11], 35.4 µM; in test [12], 56.5 µM. Also, the TGI in test [13] was 47.8 µM; in test [14] it was 75.8 µM; in test [15], above 100 µM; in test [16], above 100 µM; in [17], 61.4 µM.

In the case of `C=C(C)C12CC3CC/C(=N/O)C(C1)C3(N1CCOCC1)C/C2=N/O` (configuration not stated), the TGI in [1], in test [2], in [3], in test [4], in test [5] and in test [6] was above 100 µM in each case. Besides, the TGI in test [7], in [8], in test [9], in [10], in [11] and in [12] was above 100 µM each time. Moreover, the concentration for total growth inhibition (TGI) in [13], in test [14], in test [15], in test [16] and in test [17] was above 100 µM throughout.

Turning to `O=c1ccn(C2OC(CN(O)CCC3C(CO)OC(n4ccc(=O)[nH]c4=O)C3O)C(O)C2O)c(=O)[nH]1` (configuration not stated), the TGI in [1], in test [2], in [3], in test [4], in [5] and in test [6] was above 100 µM in each case. Also, the total growth inhibition concentration (TGI) in test [7], in test [8], in test [9], in [10], in test [11] and in [12] was above 100 µM each time. For the same compound, the TGI in [13], in [14], in [15], in test [16] and in test [17] was above 100 µM each time.

Consider `CC1=NN=C(N)NC1=CC(Sc1ccc(Cl)cc1)c1c(O)ccc2ccccc12` (configuration not stated), for which the TGI in test [1] is above 92.9 µM; in test [2] it was 32.2 µM; in test [3] it was above 63.2 µM; in [4], above 78.5 µM; in test [5], 36.9 µM; in [6], 36.2 µM. For the same compound, the TGI in test [7] is 56.5 µM; in [8], above 84.9 µM; in [9] it was 14 µM; in test [10] it was 45.1 µM; in [11] it was 53.4 µM; in test [12], above 71.1 µM. In addition, the TGI in test [13] is 21.2 µM; in test [14], 70.2 µM; in [15], above 100 µM; in test [16], above 100 µM; in [17], 25.9 µM.

For the compound `CN(C)CC1CN=C(NC(=O)Nc2ccccc2)O1` (configuration not stated), the concentration for total growth inhibition (TGI) in test [1], in test [2], in [3], in test [4], in test [5] and in [6] was above 100 µM in each case. For the same compound, the TGI in test [7], in [8], in test [9], in test [10], in test [11] and in [12] was above 100 µM in each case. For the same compound, the TGI in test [13], in test [14], in [15], in test [16] and in test [17] was above 100 µM in each case.

`Cn1c2ccccc2c(=O)c2[nH]c3ccccc3c21`: the concentration for total growth inhibition (TGI) in [1], in [2], in [3], in test [4], in [5] and in [6] was above 100 µM each time. In addition, the TGI is above 100 µM in [7]; 75.9 µM in test [8]; above 100 µM in [9]; above 100 µM in test [10]; above 100 µM in [11]; 62.4 µM in test [12]. Also, the TGI in test [13] was above 100 µM; in test [14], 99.8 µM; in test [15] it was above 100 µM; in test [16], above 100 µM; in test [17], above 100 µM.

As to `NC(=O)c1cccc([C@@H]2O[C@H](CO)[C@@H](O)[C@H]2O)c1`, the concentration for total growth inhibition (TGI) was above 100 µM in [1]; above 87.6 µM in [2]; 34.6 µM in test [3]; above 69.6 µM in test [4]; 15.9 µM in [5]; 12.4 µM in test [6]. Besides, the TGI is above 100 µM in test [7]; 8.45 µM in [8]; 75.7 µM in test [9]; above 100 µM in test [10]; above 100 µM in [11]; 26.6 µM in [12]. Further, the total growth inhibition concentration (TGI) in test [13] is 53.2 µM; in test [14], 14.4 µM; in test [15] it was 42.8 µM; in test [16] it was 99.1 µM; in [17], 60 µM.

For `CC(=O)ON(C(C)=O)c1ccc(-c2nc3ccccc3s2)cc1C`, the concentration for total growth inhibition (TGI) in [1], in test [2], in [3], in test [4], in test [5] and in [6] was above 100 µM throughout. Also, the TGI in [7], in [8], in [9], in test [10], in [11] and in [12] was above 100 µM in each case. Besides, the concentration for total growth inhibition (TGI) in test [13], in test [14], in [15], in test [16] and in test [17] was above 100 µM in each case.

(Values after PubChem BioAssay (NCI).)
